According to patent publication US8865197B2, “Food formulation for aquatic animals with integrated targeted delivery of bioactive agents” (Israel Oceanographic and Limnological Research Ltd., priority 2005, dated 2014):

Test system: rainbow trout
Assay: Cannulation experiment: plasma cortisol response to oral ACTH with gut modulators
Assay type: in vivo, rainbow trout (Oncorhynchus mykiss)
Details: for Cumulative plasma cortisol: over a 360 min period, oral ACTH 0.5 mg kg^−1
Procedure: Rainbow trout of a weight range of 750-1700 g (Spring Valley Trout Farms, Langley, BC) were immunized against firunculosis and vibriosis by injecting them with 0.2 ml fish^−1 of a 1:1 ratio of VIBRIOGEN and FUROGEN (Microtek, BC, Canada), and stocked in 4,000 liter tanks. The tanks were supplied with well water at a temperature of 10±0.5° C. at about 10 exchanges per day. After 10 days fish were transferred gradually over a period of another 10 days to full strength seawater (25-29 ppt). The temperature of the seawater ranged between 7-9° C. according to season. Only following their acclimation to seawater, after another 10 days, were fish used. […] Fish were fed daily about 1% BW of a 42% protein and 33% crude fat diet (Moore-Clark Co., Canada).
Fish were kept individually in 200 1 fiberglass tub aquaria. Fish in the tanks were confined to one half of the tank with a partition. […] In addition, fish were encouraged to swim against a current, which was generated by a pipe which directed the water inflow to the surface of the tank. The experimental fish were not fed within a given experiment, which normally lasted for 5 days, and were force fed once a week with a 0.5% body weight of a Moore Clark “Royal extrude salmon feed” (42% C.P., 33% C.F.), which was mixed with water at a 1:1 ratio to give a paste which could be intubated into the fish.
Fish were anesthetized in two stages. They were first sedated in metomidate hydrochloride (Marinil, Wildlife laboratories Inc. CO, USA) in a 250 ppb solution in the 4000 liter holding tanks with the water supply turned off. Fish were netted out of the 4,000 liter tanks into 15 liter of well aerated 100 ppm MS222 (3 amino benzoic acid ethyl ester; SIGMA) solution in SW for a deeper anesthesia. Fish were sedated until active gill ventilation ceased at which point they were taken out of the water, weighed and cannulated.
Samples were taken of blood to determine plasma cortisol or hCG. Blood sampling was done in two stages: First a volume equal to the dead volume of the cannula (˜250 μl) was withdrawn and discarded, this was followed by sampling 250-500 μl blood, depending on the RIA assay (cortisol or hCG), into a 1 ml EDTA-Aprotinin coated syringe. The blood samples were kept in 500 μl Eppendorf tubes on ice for up to two hours within which time the tubes were centrifuged at 13,000 rpm for 5 min. The supernatant plasma was removed by disposable Pasteur pipettes into Eppendorff tubes and stored at −40° C. until the RIA. When blood samples were taken for hCG analysis they were centrifuged for 5 minutes at 3750 rpm at 5° C.
To measure plasma cortisol, 20 μl of plasma was applied to a kit by INCSTAR (Minnesota, USA). No significant crossreactivity of this kit was found with dexamethasone (9α-Fluoro-16α-Methyl Predindone, SIGMA), while it crossreacted with cortisol (hydrocortisone; SIGMA), which was used in the clearance rate experiments. Porcine ACTH (SIGMA) which was used for the intubation study elicited a cortisol response in fish but could not be detected reliably by the cortisol RIA. Plasma hCG was also determined based on a RIA (INCSTAR) kit and of the orally applied hCG based on Van der Kraak et al. (1984). ACTH stimulates cortisol production in the interrenal cells of the kidney.

In the case of `C[C@H](CCC(=O)O)[C@H]1CC[C@H]2[C@@H]3CC[C@@H]4C[C@H](O)CC[C@]4(C)[C@H]3C[C@H](O)[C@]12C` [DOC, deoxycholic acid], the “cumulative response of cortisol to plasma ACTH” value (DOC molar concentration 0.0167 in the intubation medium (PBS)) is reported as 7042±3243 ng cortisol kg^−1.
With `O=c1[nH]c2ccccc2n1CCCN1CCC(n2c(=O)[nH]c3cc(Cl)ccc32)CC1` [DOM, domperidone] the “gut penetrability to ACTH as reflected by plasma cortisol” value (change relative to no modulator) was “quadrupled” and the Cumulative plasma cortisol (DOM 4.5 mg kg^−1) was 4329 ng/kg.
With ACTH the “cumulative response of cortisol to plasma ACTH” value (DOC molar concentration 0 in the intubation medium (PBS)) was 1454±597 ng cortisol kg^−1 and the Cumulative plasma cortisol (DOM 0 mg kg^−1) was 1086 ng/kg.
